“Also recorded” adds a separate entry of the source.
What was measured:
HLA alleles of class I = assay: Affinity of epitopes for HLA alleles of class I; format: binding, human; settings: for Concatenation affinity allele CII: PSA KC-2.6 Peptide CII; for Affinity allele class I: LmLRAB-IIA peptides; for Affinity for the HLA alleles of class I: H2B-1 epitopes, Table 1
Text: The multiepitopic peptide compounds (24 to 40-mer), having a high affinity with a maximized number of HLA molecules of class I and of class II, such as the affinities for the alleles HLA of class I and HLA of class II of the epitopes in the peptides of the sequences SEQ ID NO: 22, 23, 65, 66, 69, 73, 77, 96, 97, 137, 138, and 157, 185, have a high immunoprevalent potential corresponding to an optimal vaccine coverage, in particular for the populations concerned. The degree of coverage of the peptide compounds of the invention show a very high added value compared with the peptides of the prior art.

HLA alleles of class II = assay: Affinity of epitopes for HLA alleles of class II; format: binding, human
[1] = LmlRAB-IIB Peptide CII, Table 2

FLTDEKTSLV (listed as Leishmania infantum) [SEQ ID NO: 153]
Concatenation affinity allele CII (HLA alleles of class I; Table 3): HLA-A*01:01, HLA-A*02:01

FTDVHYSEV (Leishmania major) [SEQ ID NO: 121]
Affinity for HLA alleles of class I (HLA alleles of class I; LmlRAB-IIB core, Table 2): HLA-A*02:01,; also recorded: HLA-A*02:03,; also recorded: HLA-A*02:06,; also recorded: HLA-A*35:01,; also recorded: HLA-A*68:02 | Concatenation affinity for HLA alleles of class II (HLA alleles of class II; LmlRAB-IIB core, Table 2): HLA-DRB1*07:01,; also recorded: HLA-DRB1*09:01,; also recorded: HLA-DRPA*01:03/; also recorded: DPB1*04:01,; also recorded: HLA-DPA1*01:03/; also recorded: DPB1*02:01

GSDYSHSMIR (listed as Leishmania infantum) [SEQ ID NO: 179]
Concatenation affinity for HLA alleles of class I (HLA alleles of class I; PSA KC-2.7 peptides, Table 3): HLA-A*03:01

HSMIRDLDF (listed as Leishmania infantum) [SEQ ID NO: 173]
Affinity for HLA alleles of class I (HLA alleles of class I; PSA KC-2.7 core, Table 3): HLA-B*35:01,; also recorded: HLA-B*58:01 | Concatenation affinity for HLA alleles of class II (HLA alleles of class II; PSA KC-2.7 core, Table 3): HLA-DRB4*01:01

IVADHMPHL (Leishmania major) [SEQ ID NO: 89]
Affinity for HLA alleles of class I (HLA alleles of class I; LmLRAB-IIA core, Table 2): HLA-A*02:01,; also recorded: HLA-A*02:03,; also recorded: HLA-A*02:06 | Concatenation affinity for HLA alleles of class II (HLA alleles of class II; LmLRAB-IIA core, Table 2): HLA-DRB1*03:01,; also recorded: HLA-DRB1*13:02,; also recorded: HLA-DRB3*01:01

KEMPSGSDY (listed as Leishmania infantum) [SEQ ID NO: 180]
Concatenation affinity for HLA alleles of class I (HLA alleles of class I; PSA KC-2.7 peptides, Table 3): HLA-B*15:01, HLA-A*30:02,; also recorded: HLA-B*44:02, HLA-B*44:03

KGRLHSVVG (Leishmania major) [SEQ ID NO: 92]
Affinity allele class I (HLA alleles of class I; Table 2): HLA-A*30:1

KGRSENAIV (Leishmania major) [SEQ ID NO: 131]
Concatenation affinity for HLA alleles of class I (HLA alleles of class I; [1]): HLA-A*30:01

KVQEEVFDL (Leishmania major) [SEQ ID NO: 132]
Concatenation affinity for HLA alleles of class I (HLA alleles of class I; [1]): HLA-A*02:01, HLA-A*02:06, HLA-A*32:01

LFTDVHYSEV (Leishmania major) [SEQ ID NO: 133]
Concatenation affinity for HLA alleles of class I (HLA alleles of class I; [1]): HLA-A*01:01

LTDEKTSLVY (listed as Leishmania infantum) [SEQ ID NO: 154]
Concatenation affinity allele CII (HLA alleles of class I; Table 3): HLA-A*01:01, HLA-B*15:01

MIRDLDFSNM (listed as Leishmania infantum) [SEQ ID NO: 181]
Concatenation affinity for HLA alleles of class I (HLA alleles of class I; PSA KC-2.7 peptides, Table 3): HLA-B*15:01

MPSGSDYSH (listed as Leishmania infantum) [SEQ ID NO: 182]
Concatenation affinity for HLA alleles of class I (HLA alleles of class I; PSA KC-2.7 peptides, Table 3): HLA-B*35:01, HLA-B*53:01

NMGLLLSGT (listed as Leishmania infantum) [SEQ ID NO: 183]
Concatenation affinity for HLA alleles of class I (HLA alleles of class I; PSA KC-2.7 peptides, Table 3): HLA-A*02:02

RLHSVVGRH (Leishmania major) [SEQ ID NO: 93]
Affinity allele class I (HLA alleles of class I; Table 2): HLA-A*03:01, HLA-A*30:02

RSARSGEGY (listed as Leishmania infantum) [SEQ ID NO: 155]
Concatenation affinity allele CII (HLA alleles of class I; Table 3): HLA-A*30:02, HLA-B*15:01, HLA-B*57:01,; also recorded: HLA-B*58:01

RSARSGEGYF (listed as Leishmania infantum) [SEQ ID NO: 156]
Concatenation affinity allele CII (HLA alleles of class I; Table 3): HLA-B*15:01, HLA-B*58:01

SENAIVTSR (Leishmania major) [SEQ ID NO: 134]
Concatenation affinity for HLA alleles of class I (HLA alleles of class I; [1]): HLA-A*31:01, HLA-B*44:03, HLA-A*68:01

SMIRDLDFS (listed as Leishmania infantum) [SEQ ID NO: 184]
Concatenation affinity for HLA alleles of class I (HLA alleles of class I; PSA KC-2.7 peptides, Table 3): HLA-A*02:03, HLA-A*02:06

SMSHRTMKSM (Leishmania major) [SEQ ID NO: 19]
Affinity for the HLA alleles of class I (HLA alleles of class I): HLA-B*15:01,; also recorded: HLA-B*57:01,; also recorded: HLA-A*02:03,; also recorded: HLA-B*08:01

SVVGRHLSI (Leishmania major) [SEQ ID NO: 94]
Affinity allele class I (HLA alleles of class I; Table 2): HLA-A*02:03, HLA-A*02:06, HLA-A*32:01,; also recorded: HLA-B*08:01

TMKSMSHRTM (Leishmania major) [SEQ ID NO: 21]
Affinity for the HLA alleles of class I (HLA alleles of class I): HLA-B*15:01,; also recorded: HLA-B*08:01

TSRKDQEEV [SEQ ID NO: 135]
Concatenation affinity for HLA alleles of class I (HLA alleles of class I; [1]): HLA-B*15:01, HLA-A*30:01, HLA-A*68:02

VHYSEVSAK (Leishmania major) [SEQ ID NO: 136]
Concatenation affinity for HLA alleles of class I (HLA alleles of class I; [1]): HLA-A*03:01

VQEEVFDLF (Leishmania major) [SEQ ID NO: 126]
Affinity for HLA alleles of class I (HLA alleles of class I; LmlRAB-IIB core, Table 2): HLA-A*02:06

VVGRHLSIV (Leishmania major) [SEQ ID NO: 95]
Affinity allele class I (HLA alleles of class I; Table 2): HLA-A*02:03

Reference: patent US11559575B2, “Multi-epitopic peptide compounds and vaccines against leishmaniasis” (INSTITUT DE RECHERCHE POUR LE DEVELOPPEMENT, priority 2018, dated 2023)
